For 22 compounds, pKi results are on record in US8372865B2, “Dihydropyridone amides as P2X7 modulators” (Roche Palo Alto LLC, priority 2008, dated 2013).

This test deals with T1, P2X7 receptor (UniProt Q99572).
T1 sequence (Q99572 1-595): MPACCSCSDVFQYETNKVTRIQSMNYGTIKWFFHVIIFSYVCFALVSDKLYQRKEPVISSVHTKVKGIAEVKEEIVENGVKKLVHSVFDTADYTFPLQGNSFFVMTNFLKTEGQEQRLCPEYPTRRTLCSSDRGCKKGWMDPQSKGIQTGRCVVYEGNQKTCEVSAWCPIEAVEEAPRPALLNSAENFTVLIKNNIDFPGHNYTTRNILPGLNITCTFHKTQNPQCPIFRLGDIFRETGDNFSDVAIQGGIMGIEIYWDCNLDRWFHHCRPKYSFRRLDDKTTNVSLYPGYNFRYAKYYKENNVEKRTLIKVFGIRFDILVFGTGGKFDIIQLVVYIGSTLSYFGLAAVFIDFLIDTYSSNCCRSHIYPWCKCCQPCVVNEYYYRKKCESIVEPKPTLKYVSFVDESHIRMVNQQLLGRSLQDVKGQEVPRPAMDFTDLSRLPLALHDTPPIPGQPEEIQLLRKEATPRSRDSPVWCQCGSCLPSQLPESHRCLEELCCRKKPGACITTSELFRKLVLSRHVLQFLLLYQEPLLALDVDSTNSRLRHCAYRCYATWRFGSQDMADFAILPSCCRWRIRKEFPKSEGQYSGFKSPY
In words: pKi of Table 1 (assay not stated). The format is cell-based. Here is the method: Intracellular Calcium Flux (FLIPR) Assay
Stock solutions of compounds were prepared from powders as a 10 mM DMSO stock solution. These solutions were stored at RT during the two week period of these experiments to prevent freeze-thaw of the DMSO stocks. The DMSO stocks were added to the appropriate assay buffer at a concentration of 10 μM, and then diluted serially to the final concentrations that were tested. […] The aqueous solutions of compounds as well as ATP (Sigma A7699) and BzATP (Sigma B6396) were prepared fresh for each day of experiment.
1321N1 cells stably expressing the full length human P2X7 gene (1321N1-hP2X7) and HEK293 cells stably expressing the full length rat P2X7 gene (HEK293-rP2X7) were obtained from the Roche Cell Culture Facility. 1321N1-hP2X7 cells were grown in Dulbecco's Modified Eagle's Medium (DMEM) high glucose supplemented with 10% FBS and 250 μg/mL G418. HEK293-rP2X7 cells were grown in DMEM/F-12 supplemented with 10% FBS, 1 mM CaCl2, 2 mM MgCl2, 2 mM L-Glutamine and 500 μg/ml G418. Cells were split such that they never became>70% confluent.
On the day prior to the experiment, 1321N1-hP2X7 or HEK293-rP2X7 cells were released into suspension with calcium-free PBS+Versene and washed by centrifugation with calcium-free PBS to remove the Versene. Cells were resuspended in growth medium at a density of 2.5×10^5 cells/mL and seeded into black walled, clear bottom 96 well plates (50,000 cells/well) approximately 18 hr prior to intracellular calcium flux experiments.
On the day of the experiment, plates were washed with FLIPR buffer (calcium- and magnesium-free Hank's Balanced Salt Solution (HBSS) supplemented with 10 mM Hepes, 2.5 mM probenecid and 2 mM calcium chloride) using a BIO-TEK 96 channel plate washer and incubated with […] fluo-3 dye at 37° C. for one hr. The dye was then removed by plate washing and the cells were allowed to equilibrate for 20 min at room temperature with antagonist or vehicle (FLIPR buffer). Agonist (100 μM BzATP final concentration for hP2X7; 5 μM BzATP final concentration or rP2X7) was added online with the FLIPR and fluorescence measurements made at 1 sec intervals for 60 sec followed by 3 sec intervals for a further 4 min (5 min total). A final addition of 5 μM ionomycin was made and the maximal BzATP-evoked fluorescence normalized to the maximal ionomycin-evoked fluorescence.
Broadly, the pKi is −log10 of the Ki, conventionally taken in molar units. Higher therefore signals a low Ki. Compound `CCc1cc2c(cc1NC(=O)C1=CNC(=O)C[C@H]1c1cccc(F)c1)N(C)C(=O)CO2` [Compound 26, (S)-4-(3-Fluoro-phenyl)-6-oxo-1,4,5,6-tetrahydro-pyridine-3-carboxylic acid (7-ethyl-4-methyl-3-oxo-3,4-dihydro-2H-benzo[1,4]oxazin-6-yl)-amide] gave a pKi of 7.125.

As for `Cc1ccc2ncccc2c1NC(=O)C1=CNC(=O)C[C@H]1c1ccc(F)cc1` [Compound 27, (S)-4-(4-Fluoro-phenyl)-6-oxo-1,4,5,6-tetrahydro-pyridine-3-carboxylic acid (6-methyl-quinolin-5-yl)-amide], the pKi was 7.64.

Compound `Cc1cc2cnn(CCO)c2cc1NC(=O)C1=CNC(=O)C[C@H]1c1ccc(F)cc1` [Compound 28, (S)-4-(4-Fluoro-phenyl)-6-oxo-1,4,5,6-tetrahydro-pyridine-3-carboxylic acid [1-(2-hydroxy-ethyl)-5-methyl-1H-indazol-6-yl]-amide] yielded a pKi of 7.645.

For `Cc1cc2cc(C)n(CCO)c2cc1NC(=O)C1=CNC(=O)C[C@H]1c1ccc(F)cc1` [Compound 29, (S)-4-(4-Fluoro-phenyl)-6-oxo-1,4,5,6-tetrahydro-pyridine-3-carboxylic acid [1-(2-hydroxy-ethyl)-2,5-dimethyl-1H-indol-6-yl]-amide], the pKi is given as 6.285.

Regarding `Cc1cc2c(C)cn(CCO)c2cc1NC(=O)C1=CNC(=O)C[C@H]1c1ccc(F)cc1` [Compound 30, (S)-4-(4-Fluoro-phenyl)-6-oxo-1,4,5,6-tetrahydro-pyridine-3-carboxylic acid [1-(2-hydroxy-ethyl)-3,5-dimethyl-1H-indol-6-yl]-amide], the pKi is recorded as 6.89.

Regarding `CCc1cc2c(cc1NC(=O)C1=CNC(=O)C[C@H]1c1ccc(F)cc1)N(C)C(=O)CC2` [Compound 31, (S)-4-(4-Fluoro-phenyl)-6-oxo-1,4,5,6-tetrahydro-pyridine-3-carboxylic acid (6-ethyl-1-methyl-2-oxo-1,2,3,4-tetrahydro-quinolin-7-yl)-amide], the negative-log Ki (pKi) was 6.805.

For the compound `CC1=C(C(=O)Nc2ccc3[nH]ncc3c2)C(c2ccc(F)cc2)CC(=O)N1` (stereo not shown) [Compound 32, 4-(4-Fluoro-phenyl)-2-methyl-6-oxo-1,4,5,6-tetrahydro-pyridine-3-carboxylic acid (1H-indazol-5-yl)-amide], the pKi is given as 5.14.

With `Cc1cc2c(cc1NC(=O)C1=CNC(=O)C[C@H]1c1ccc(F)cc1)N(CCO)C(=O)CC2` [Compound 33, (S)-4-(4-Fluoro-phenyl)-6-oxo-1,4,5,6-tetrahydro-pyridine-3-carboxylic acid [1-(2-hydroxy-ethyl)-6-methyl-2-oxo-1,2,3,4-tetrahydro-quinolin-7-yl]-amide], the pKi turned out to be 6.285.

In turn, `O=C1C[C@@H](c2ccc(F)cc2)C(C(=O)Nc2cc3c(cc2Br)N(CCO)C(=O)CC3)=CN1` [Compound 34, (S)-4-(4-Fluoro-phenyl)-6-oxo-1,4,5,6-tetrahydro-pyridine-3-carboxylic acid [7-bromo-1-(2-hydroxy-ethyl)-2-oxo-1,2,3,4-tetrahydro-quinolin-6-yl]-amide] came in with a pKi of 6.785.

For the compound `CCc1c(NC(=O)C2=CNC(=O)C[C@H]2c2ccc(F)cc2)ccc2nc(C)ccc12` [Compound 35, (S)-4-(4-Fluoro-phenyl)-6-oxo-1,4,5,6-tetrahydro-pyridine-3-carboxylic acid (5-ethyl-2-methyl-quinolin-6-yl)-amide], the negative-log Ki (pKi) came to 7.18.

`Cc1cc2c(cc1NC(=O)C1=CNC(=O)C[C@H]1c1ccc(F)cc1)NC(=O)CO2` [Compound 36, (S)-4-(4-Fluoro-phenyl)-6-oxo-1,4,5,6-tetrahydro-pyridine-3-carboxylic acid (7-methyl-3-oxo-3,4-dihydro-2H-benzo[1,4]oxazin-6-yl)-amide]: the pKi turned out to be 5.56.

`O=C1C[C@@H](c2ccc(F)cc2)C(C(=O)Nc2cc3c(cc2Br)OCC(=O)N3CCO)=CN1` [Compound 38, (S)-4-(4-Fluoro-phenyl)-6-oxo-1,4,5,6-tetrahydro-pyridine-3-carboxylic acid [7-bromo-4-(2-hydroxy-ethyl)-3-oxo-3,4-dihydro-2H-benzo[1,4]oxazin-6-yl]-amide]: the pKi came out at 5.25.

In the case of `Cc1cc2c(cc1NC(=O)C1=CNC(=O)C[C@H]1c1ccc(F)cc1)N(CCO)C(=O)CO2` [Compound 39, (S)-4-(4-Fluoro-phenyl)-6-oxo-1,4,5,6-tetrahydro-pyridine-3-carboxylic acid [4-(2-hydroxy-ethyl)-7-methyl-3-oxo-3,4-dihydro-2H-benzo[1,4]oxazin-6-yl]-amide], the pKi was found to be 5.48.

`CCc1cc2c(cc1NC(=O)C1=CNC(=O)C[C@H]1c1ccc(F)cc1)N(CCO)C(=O)CO2` [Compound 40, (S)-4-(4-Fluoro-phenyl)-6-oxo-1,4,5,6-tetrahydro-pyridine-3-carboxylic acid [7-ethyl-4-(2-hydroxy-ethyl)-3-oxo-3,4-dihydro-2H-benzo[1,4]oxazin-6-yl]-amide] came in with a pKi of 6.485.

`O=C1C[C@@H](c2ccc(F)cc2)C(C(=O)Nc2cc3c(cc2Br)CCC(=O)N3)=CN1` [Compound 41, (S)-4-(4-Fluoro-phenyl)-6-oxo-1,4,5,6-tetrahydro-pyridine-3-carboxylic acid (6-bromo-2-oxo-1,2,3,4-tetrahydro-quinolin-7-yl)-amide]: the pKi came out at 5.145.

As for `CCc1cc2cnn(C)c2cc1NC(=O)C1=CNC(=O)C[C@H]1c1ccc(F)cc1` [Compound 42, (S)-4-(4-Fluoro-phenyl)-6-oxo-1,4,5,6-tetrahydro-pyridine-3-carboxylic acid (5-ethyl-1-methyl-1H-indazol-6-yl)-amide], the negative-log Ki (pKi) is given as 7.74.

On to `Cc1cc2c(cc1NC(=O)C1=CNC(=O)C[C@H]1c1ccc(F)cc1)CCC(=O)N2C` [Compound 43, (S)-4-(4-Fluoro-phenyl)-6-oxo-1,4,5,6-tetrahydro-pyridine-3-carboxylic acid (1,7-dimethyl-2-oxo-1,2,3,4-tetrahydro-quinolin-6-yl)-amide], for which the pKi came out at 7.505.

`CCc1cc2cnn(C)c2cc1NC(=O)C1=CNC(=O)C[C@H]1c1cccc(F)c1` [Compound 44, (S)-4-(3-Fluoro-phenyl)-6-oxo-1,4,5,6-tetrahydro-pyridine-3-carboxylic acid (5-ethyl-1-methyl-1H-indazol-6-yl)-amide]: the pKi is recorded as 7.825.

`CCc1cc2cnn(CCO)c2cc1NC(=O)C1=CNC(=O)C[C@H]1c1cccc(F)c1` [Compound 45, (S)-4-(3-Fluoro-phenyl)-6-oxo-1,4,5,6-tetrahydro-pyridine-3-carboxylic acid [5-ethyl-1-(2-hydroxy-ethyl)-1H-indazol-6-yl]-amide] came in with a pKi of 7.7.

`CCc1c(NC(=O)C2=CNC(=O)C[C@H]2c2cccc(F)c2)ccc2nc(C)ccc12` [Compound 46, (S)-4-(3-Fluoro-phenyl)-6-oxo-1,4,5,6-tetrahydro-pyridine-3-carboxylic acid (5-ethyl-2-methyl-quinolin-6-yl)-amide] gave a pKi of 7.635.

`O=C1C[C@@H](c2ccc(F)cc2)C(C(=O)Nc2cccc3ccncc23)=CN1` [Compound 47, (S)-4-(4-Fluoro-phenyl)-6-oxo-1,4,5,6-tetrahydro-pyridine-3-carboxylic acid isoquinolin-8-ylamide]: the pKi is listed as 5.29.

As for `Cc1cc2c(NC(=O)C3=CNC(=O)C[C@H]3c3ccc(F)cc3)cccc2nn1` [Compound 48, (S)-4-(4-Fluoro-phenyl)-6-oxo-1,4,5,6-tetrahydro-pyridine-3-carboxylic acid (3-methyl-cinnolin-5-yl)-amide], the pKi came out at 5.425.
